Values of other authors as cited in patent publication EP0349956A1, “Azacyclic compounds and their preparation und use” (NOVO NORDISK A/S, priority 1988, dated 1990).
Like-named read-outs stand apart in the source and are kept apart here.

Molecular target: muscarinic receptor in the CNS

## ³H-Oxotremorine-M
First of three different sites labelled by ³H-Oxo (high affinity)
  Kd: 1.8 nM
Second of three different sites labelled by ³H-Oxo (medium affinity)
  Kd: 20 nM
Third of three different sites labelled by ³H-Oxo (not determined under the present conditions), read-out: affinity
  Kd: 3000 nM
